According to ChEMBL document CHEMBL1201862, “PubChem BioAssay data set” (2004):
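Protocol summary: plate cells (96-well), add compound at 5 concentrations, incubate 48 h, interpolate endpoints linearly. GI50 = concentration required for 50% inhibition of growth.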 Active and inactive are the calls of the source. Rule as the data show it: active = GI50 up to about 1.1 µM and inactive = higher.

Tests used:
Experiment in all cases: NCI anticancer screen, dose series, 48 h
A549 = tested on: A549
ACHN = tested on: ACHN
CAKI-1 = tested on: CAKI-1
CCRF-CEM = tested on: CCRF-CEM
COLO 205 = tested on: COLO 205
DU-145 = tested on: DU-145
EKVX = tested on: EKVX
HCT-15 = tested on: HCT-15
HOP-62 = tested on: HOP-62
K562 = tested on: K562
MCF7 = tested on: MCF7
MDA-MB-435 = tested on: MDA-MB-435
NCI-H460 = tested on: NCI-H460
NCI-H522 = tested on: NCI-H522
OVCAR-8 = tested on: OVCAR-8
PC-3 = tested on: PC-3
SF-539 = tested on: SF-539
SN12C = tested on: SN12C
UO-31 = tested on: UO-31
RPMI-8226 = tested on: RPMI-8226

| SMILES | GI50 (A549) | GI50 (ACHN) | GI50 (CAKI-1) | GI50 (CCRF-CEM) | GI50 (COLO 205) | GI50 (DU-145) | GI50 (EKVX) | GI50 (HCT-15) | GI50 (HOP-62) | GI50 (K562) | GI50 (MCF7) | GI50 (MDA-MB-435) | GI50 (NCI-H460) | GI50 (NCI-H522) | GI50 (OVCAR-8) | GI50 (PC-3) | GI50 (SF-539) | GI50 (SN12C) | GI50 (UO-31) | GI50 (RPMI-8226) |
| --- | --- | --- | --- | --- | --- | --- | --- | --- | --- | --- | --- | --- | --- | --- | --- | --- | --- | --- | --- | --- |
| CCN(CC)/C(Sc1ccccc1)=C(\C(Cl)=C(Cl)Cl)[N+](=O)[O-] | 21.7 µM (inactive) | 17.1 µM (inactive) | 13 µM (inactive) | 4.99 µM (inactive) | 16.4 µM (inactive) | 16.9 µM (inactive) | 15.6 µM (inactive) | 14.9 µM | 23.5 µM (inactive) | 10.8 µM (inactive) | 14.9 µM (inactive) | 13.5 µM (inactive) | 21.7 µM (inactive) | 12.6 µM (inactive) | 17.2 µM (inactive) | 17.2 µM (inactive) | 17.3 µM (inactive) | 17.9 µM (inactive) | 14.8 µM (inactive) |  |
| Clc1c(Cl)c(Cl)c2c(nnn2C2CCCO2)c1Cl (stereo not given) | 24.7 µM (inactive) |  | 31.9 µM (inactive) | 26.4 µM (inactive) | 24.2 µM (inactive) | 51.5 µM (inactive) | 22.3 µM (inactive) | 28.4 µM | 40.5 µM (inactive) | 24.3 µM (inactive) | 33.9 µM (inactive) | 34.1 µM (inactive) | 13.9 µM (inactive) | 23.8 µM (inactive) | 29.3 µM (inactive) | 39.2 µM (inactive) | 30.7 µM (inactive) | 40.7 µM (inactive) |  |  |
| C=CC(O)C#Cc1cnc(OC)nc1OC (stereo not given) | > 100 µM (inactive) | > 100 µM (inactive) | 35.1 µM (inactive) | 17.1 µM (inactive) | 81.5 µM (inactive) | > 100 µM (inactive) | > 100 µM (inactive) | > 100 µM | > 100 µM (inactive) | 23.9 µM (inactive) | 14.5 µM (inactive) | > 100 µM (inactive) | > 100 µM (inactive) | 54.2 µM (inactive) | > 100 µM (inactive) | > 100 µM (inactive) | > 100 µM (inactive) | > 100 µM (inactive) | > 100 µM (inactive) |  |
| CCOC(=O)C1NCCc2c1[nH]c1ccccc21 (stereo not given) | > 10 µM (inactive) |  | > 10 µM (inactive) | > 10 µM (inactive) | > 10 µM (inactive) | > 10 µM (inactive) | > 10 µM (inactive) | > 10 µM | > 10 µM (inactive) | > 10 µM (inactive) | > 10 µM (inactive) | > 10 µM (inactive) |  | > 10 µM (inactive) | > 10 µM (inactive) | > 10 µM (inactive) |  | > 10 µM (inactive) |  | > 10 µM (inactive) |
| CO/N=C(/C)c1cccc(Nc2nc3ccccc3c3[nH]c4ccccc4c23)c1 | 8.75 µM (inactive) | 3.57 µM (inactive) | 10.5 µM (inactive) |  | 7.33 µM (inactive) | 12.5 µM (inactive) |  | 5.92 µM | 9.66 µM (inactive) | 5.97 µM (inactive) | 5.16 µM (inactive) | 7.41 µM (inactive) | 2.52 µM (inactive) | 2.99 µM (inactive) | 6.22 µM (inactive) | 10.4 µM (inactive) | 14.4 µM (inactive) | 11.5 µM (inactive) | 10.1 µM (inactive) |  |
| S=C(Nc1ccc2c(c1)oc1ccccc12)c1cccnc1 | 37.6 µM (inactive) | 29.2 µM (inactive) |  | > 100 µM (inactive) | > 100 µM (inactive) | > 100 µM (inactive) | 65.9 µM (inactive) | > 100 µM | 17.1 µM (inactive) |  | 40.9 µM (inactive) | > 100 µM (inactive) | 24.6 µM (inactive) | 22 µM (inactive) | 26.2 µM (inactive) | 55.3 µM (inactive) |  | > 100 µM (inactive) | 22.7 µM (inactive) | > 100 µM (inactive) |
